Laboratory results as given in patent US20050171004A1, “Use of cardiotrophin-1 to promote wound healing and counteract overt fibrosis” (priority 2003, published 2005).

Legend:
[1] = test system: cardiac fibroblasts; test: Western analysis of myosin light chain phosphorylation; type: cell-based, rat; conditions: co-incubation with inhibitor, 30 minutes
Method: (§1) Protein concentrations of tissue and cell lysates were determined by the BCA method (Smith et al., 1985, Anal Biochem 150: 76-85). Proteins were separated by 8-12% SDS-PAGE and transferred to PVDF membrane (Roche, Indianapolis, Ind.) for 1 hour at 300 mA for small proteins or for 2 hours at 500 mA for proteins greater than 100 kDa. Membranes were blocked with 5% non-fat skim milk in tris-buffered saline containing 0.2% Tween 20 (TBST). Proteins were visualized with ECL Plus (Amersham) after probing with primary and secondary antibodies. Band intensity was quantified using a CCD camera imaging densitometer (GS670, Bio-Rad Laboratories (Canada) Ltd. Mississauga, Ontario).
The infarct zone is repopulated by interstitial fibroblasts that infiltrate the scar after MI. […] Similar results were obtained when using the Costar Transwell® system (data not shown). To determine how the chemotactic response is transduced, we used specific inhibitors of intracellular signaling pathways. […] This effect could be blunted by co-incubation with AG490 (FIG. 22). […] Since activation of myosin motors is required for effective cell migration, and CT-1 induced migration could be inhibited by co-incubation with a myosin light chain kinase inhibitor, we sought to determine the effect of CT-1 on the phosphorylation status of myosin light chain. Myosin light chain regulates the ATPase activity of myosin heavy chain, and thus overall contractile activity. […] Myosin light chain phosphorylation could be prevented by co-incubation with ML-7 or W7 but not AG490 or PP2 (FIG. 25b).

[2] = test system: cardiac fibroblasts; test: Western analysis of phosphorylation of translational regulatory proteins; type: cell-based, rat; conditions: co-incubation with inhibitor
Method: as §1
To determine the effect of CT-1 on protein synthesis in cardiac fibroblasts we measured incorporation of ^3H-labeled leucine. […] Since the activity of translational regulatory proteins is modified by phosphorylation, we used phospho-specific antibodies to determine if CT-1 directly influenced the activity of these regulatory proteins.
We then determined the effect of pharmacologic inhibitors on the activation of this signaling cascade.

[3] = test system: cardiac fibroblasts; test: Protein synthesis assay (3H-leucine incorporation); type: cell-based, rat; conditions: co-incubation with inhibitor, CT-1 10 ng/mL
Method: Protein synthesis was determined using the methods of Wolf and Neilson (Wolf and Neilson, 1990, Am J Physiol 259: 768-777). 2.5×10^4 cells (counted with a hemacytometer) were loaded into each well of 24-well plates, allowed to attach overnight, then rendered quiescent in serum free DMEM/F12 for 24 hours. Cells were stimulated with CT-1 for an additional 24 hours in the presence of 2 μCi/mL ^3H-leucine with or without inhibitors of signaling pathways. The culture media was aspirated, cells rinsed twice with phosphate buffered saline and proteins precipitated by two incubations with 10% TCA at room temperature. The precipitated protein was solubilized in 300 μl lysis buffer containing 0.5 M NaOH and 1% Triton X-100 at room temperature for 15 minutes. The lysate was transferred to scintillation vials, and beta emission was determined with 3 ml Ecolume scintillation fluid (ICN Pharmaceuticals) and a scintillation counter (LS6500, Beckman Coulter, Fullerton, Calif.).

[4] = test system: angiotensinogen mRNA; conditions: cited from earlier work
[5] = test system: cardiac fibroblasts; test: Wounded monolayer model, cortactin immunostaining; type: cell-based, rat; conditions: co-incubation with inhibitor
Method: Cardiac fibroblasts were seeded onto coverslips in 6-well dishes and allowed to proliferate. Once the cells were near confluency, they were serum deprived for 24 hours. A scrape was made down the middle of the coverslip with the blunt end of a 1 ml syringe and the media was changed again. Cells were further incubated in the presence or absence of CT-1 and inhibitors at specified concentrations for specified times. The cells were then subjected to immunofluorescence staining as described herein.

[6] = test system: other kinases; conditions: cited from earlier work

## N#C/C(=C\c1ccc(O)c(O)c1)C(=O)NCc1ccccc1 [AG490, Tyrphostin B42]
[1]
  effect on CT-1 induced myosin light chain phosphorylation: not
[2]
  effect on CT-1 induced activation of ERK 1/2, p38 MAPK, mTOR, p70 S6 kinase S421/T424, or S6 ribosomal protein: did not significantly affect
  effect on CT-1 induced phosphorylation of Akt at both sites, p70 S6 kinase T389, Mnk1, eIF4E and 4E-BP1: suppressed
[3]
  effect on CT-1 induced protein synthesis (3H-leucine uptake): suppressed
[4]
  angiotensinogen mRNA production in response to CT-1 stimulation: attenuate
[5]
  effect on CT-1 induced cortactin localization at the leading edge: blunted

## O=S(=O)(c1cccc2c(I)cccc12)N1CCCNCC1 [ML-7]
[1]
  effect on CT-1 induced myosin light chain phosphorylation: prevented

## COc1cccc(-c2cc(=O)c3ccccc3o2)c1N [PD98059]
[6]
  concentration at which selectivity is maintained: ≤ 50 µM
[2]
  effect on CT-1 induced phosphorylation of Akt, mTOR, p70 S6 kinase, 4EB-P1 and S6 ribosomal protein: lesser effect
  effect on basal and CT-1 induced phosphorylation of ERK 1/2, Mnk1, and eIF4E: greatest inhibitory effect
[3]
  effect on CT-1 induced protein synthesis (3H-leucine uptake): suppressed

## CC(C)(C)n1nc(-c2ccc(Cl)cc2)c2c(N)ncnc21 [PP2]
[1]
  effect on CT-1 induced myosin light chain phosphorylation: not

## C[S+]([O-])c1ccc(-c2nc(-c3ccncc3)c(-c3ccc(F)cc3)[nH]2)cc1 (stereo not drawn) [SB203580]
[2]
  effect on CT-1 induced phosphorylation of Akt, p70 S6 kinase and Mnk1: suppressed
[3]
  effect on CT-1 induced protein synthesis (3H-leucine uptake): suppressed

## NCCCCCCNS(=O)(=O)c1cccc2c(Cl)cccc12 [W7]
[1]
  effect on CT-1 induced myosin light chain phosphorylation: prevented
